From paper PMC12822916 (Cell reports, 2025)

Biological target: eIF3e (Homo sapiens, UniProt P60228)
Experiment: isothermal dose-response fingerprint CETSA, western blot
Assay type: biochemical
Details: MCF7-SIX1 lysate, 10 min at room temperature with compound, heated at 53 °C for 3 min; pH 7.5 Tris, 100 mM NaCl, 1 mM DTT

Sequence of eIF3e (P60228 2-445): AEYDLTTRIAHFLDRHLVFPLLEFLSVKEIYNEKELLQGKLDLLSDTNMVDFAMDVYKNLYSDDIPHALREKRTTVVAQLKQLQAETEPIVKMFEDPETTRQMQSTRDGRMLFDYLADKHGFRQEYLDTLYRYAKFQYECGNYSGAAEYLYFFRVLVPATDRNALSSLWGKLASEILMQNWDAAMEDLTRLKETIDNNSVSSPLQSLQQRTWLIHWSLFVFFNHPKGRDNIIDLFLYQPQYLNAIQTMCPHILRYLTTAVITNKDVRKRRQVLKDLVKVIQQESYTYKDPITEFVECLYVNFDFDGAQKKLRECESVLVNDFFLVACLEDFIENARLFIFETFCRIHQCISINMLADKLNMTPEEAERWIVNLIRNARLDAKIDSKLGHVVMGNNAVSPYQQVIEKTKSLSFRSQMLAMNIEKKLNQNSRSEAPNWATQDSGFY

EC50: 13.6 µM
Compound: COc1ccc(NC(=O)c2cccc(-n3cccc3)c2)cc1S(=O)(=O)N1CCOCC1 [compound 8430, NCGC00378430]
